Measurements reported in patent publication US8404718B2, “Combinations of pyrazole kinase inhibitors” (Astex Therapeutics Limited, priority 2005, dated 2013).
Counter-ions that a name gives are not always drawn.

Key:
[1] = tested on: human colon carcinoma cell line HCT 116; assay: Anti-proliferative activity, Alamar Blue assay; format: cell-based; conditions: 72 hours compound incubation, read-out: IC50, inhibition of cell growth, HCT 116
Summary of the method: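 Cells were allowed to recover for 16 h, then exposed to compounds or combinations for 72 h. Viability was measured by resazurin reduction after 6 h with 10% (v/v) Alamar Blue, read at 535 nm ex/590 […] em. In the non-proliferating format, cells were held at confluence for 96 h before the 72 h treatment.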

CDK5/p35 = CDK5/p35 (Homo sapiens, UniProt Q00535); assay: CDK selectivity assay, CDK5/p35; format: biochemical
Description: (specific activity approx 500 cpm/pmol, concentration as required).

[2] = clinical studies; cited from earlier work
OVCAR-3 tumour cells = conditions: concentrations of 50 and 100 microM; cited from earlier work
PKG = conditions: data published in 2002; cited from earlier work
PKA = conditions: data published in 2002; cited from earlier work
PKC = conditions: data published in 2002; cited from earlier work
symptomatic CLL patients = conditions: initial therapy; cited from earlier work
Solubility of the salt = format: physicochemical
[3] = Stability and hygroscopicity of the salt; format: physicochemical
Description: The term ‘stable’ or ‘stability’ as used herein includes chemical stability and solid state (physical) stability. The term ‘chemical stability’ means that the compound can be stored in an isolated form, or in the form of a formulation in which it is provided in admixture with for example, pharmaceutically acceptable carriers, diluents or adjuvants as described herein, under normal storage conditions, with little or no chemical degradation or decomposition. ‘Solid-state stability’ means the compound can be stored in an isolated solid form, or the form of a solid formulation in which it is provided in admixture with, for example, pharmaceutically acceptable carriers, diluents or adjuvants as described herein, under normal storage conditions, with little or no solid-state transformation (e.g. hydration, dehydration, solvatisation, desolvatisation, crystallisation, recrystallisation or solid-state phase transition).

Sequence of CDK5/p35 (Q00535 whole entry, species assumed): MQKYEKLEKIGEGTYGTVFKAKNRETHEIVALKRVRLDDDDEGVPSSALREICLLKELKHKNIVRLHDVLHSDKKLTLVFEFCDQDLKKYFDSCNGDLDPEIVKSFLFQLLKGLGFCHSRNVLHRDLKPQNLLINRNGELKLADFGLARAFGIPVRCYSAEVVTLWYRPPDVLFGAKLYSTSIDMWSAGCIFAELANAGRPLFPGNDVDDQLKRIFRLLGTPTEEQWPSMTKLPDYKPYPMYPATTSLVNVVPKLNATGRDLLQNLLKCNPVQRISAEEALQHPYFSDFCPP
Sequence of CDK5/p35 (Q15078 whole entry partner, species assumed): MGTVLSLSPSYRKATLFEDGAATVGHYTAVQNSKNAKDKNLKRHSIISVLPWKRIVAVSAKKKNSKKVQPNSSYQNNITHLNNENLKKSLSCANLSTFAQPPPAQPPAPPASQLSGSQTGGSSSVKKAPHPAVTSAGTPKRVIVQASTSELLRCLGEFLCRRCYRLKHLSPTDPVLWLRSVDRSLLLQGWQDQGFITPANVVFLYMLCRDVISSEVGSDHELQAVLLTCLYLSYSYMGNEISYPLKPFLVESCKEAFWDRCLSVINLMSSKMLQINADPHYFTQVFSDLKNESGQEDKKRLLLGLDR

In the case of O=C(Nc1ccc(F)cc1)c1n[nH]cc1NC(=O)c1c(F)cccc1F [Example 41, 4-(2,6-Difluoro-benzoylamino)-1H-pyrazole-3-carboxylic acid (4-fluoro-phenyl)-amide], the IC50 [1] is reported as < 20 µM and the IC50 (CDK5/p35) is reported as < 20 µM.
For CCCCCCCCCCCCCCCCCCOP(=O)([O-])OC1CC[N+](C)(C)CC1 [KRX-0401, Perifosine], the Half-life [2] is given as ~100 h.
For O=S(=O)(NCCNCC=C(c1ccccc1)c1ccccc1)c1cccc2cnccc12 [NL-71-101], the “Apoptosis in OVCAR-3 tumour cells” value (OVCAR-3 tumour cells) is listed as “induced apoptosis”, the IC50 (PKG) is listed as 36 µM and the IC50 (PKA) is listed as 9 µM. For the same compound, the IC50 (PKC) was 104 µM.
In the case of Nc1nc(F)nc2c1ncn2[C@@H]1O[C@H](CO)[C@@H](O)[C@@H]1O [fludarabine], the “Duration of progression-free survival” value (symptomatic CLL patients) is given as 33 months and the “Rate of complete responses” value (symptomatic CLL patients) is given as 27%.
In the case of CS(=O)(=O)O.O=C(NC1CCNCC1)c1n[nH]cc1NC(=O)c1c(Cl)cccc1Cl [methanesulphonate salt, 4-(2,6-dichlorobenzoylamino)-1H-pyrazole-3-carboxylic acid piperidin-4-ylamide methanesulphonate], the Water solubility (Solubility of the salt) is reported as “excellent” and the Hygroscopicity [3] is reported as “non-hygroscopicity”.
Compound O=C(NC1CCNCC1)c1n[nH]cc1NC(=O)c1c(Cl)cccc1Cl [methanesulphonic acid salt, 4-(2,6-dichloro-benzoylamino)-1H-pyrazole-3-carboxylic acid piperidin-4-ylamide] has a solubility (Solubility of the salt; pH 4.6, aqueous buffer, acetic acid/sodium acetate buffer, solution pH approximately 4.6) of ~35 mg/mL.
